Tested on: 786-O subcutaneous xenografts
Experiment: In vivo 786-O tumor growth model
Details: female nude mice, 30 mg/kg p.o. qd, 21 days
Protocol: Female nude mice bearing 786-O subcutaneous xenografts were treated with Example 31 at 30 mg/kg p.o. qd or vehicle control. Treatments started 34 days post tumor inoculation and lasted 21 days. Values are provided as mean±SEM with a sample size of n=6 mice per group. The initial tumor volume at day 0 was approximately 260 mm^3.
Experiments were performed in female nude Crl:NU(NCr)-Foxnlnu-Homozygous mice (Charles River, Germany). Animals were 6-9 weeks of age at time of application of the compound. Animals were housed under Optimized Hygienic Conditions in Makrolon type III cages (max. 5 animals per cage) with free access to food and water. […]
Cell line and cell culture: 786-O and SKRC-01 cells were grown in 500 ml RPMI1640 Medium+5 ml L-Glutamine+50 ml FCS+5 ml Sodium Pyruvate+5 ml HEPES and incubated at 37° C. in a 5% CO2 humidified atmosphere. Cells were harvested with trypsin-EDTA, re-suspended in culture medium (with additives) and counted with a Casy® system. […]
Evaluation of antitumor activity: Tumor volumes were measured with calipers and determined according to the formula: length×diameter^2×π/6. In addition to presenting changes of tumor volumes over the course of treatments, antitumor activity is expressed as T/C % (mean change of tumor volume of treated animals/mean change of tumor volume of control animals)×100. […]

## FC(F)OC1=CC(C(F)(F)F)=CN2C[C@@]3(CCC(F)(F)c4c3ccnc4Cl)N=C12 [Example 31, (S)-1′-chloro-8-(difluoromethoxy)-8′,8′-difluoro-6-(trifluoromethyl)-7′,8′-dihydro-3H,6′H-spiro[imidazo[1,2-a]pyridine-2,5′-isoquinoline]]
  anti-tumor activity: demonstrated

From US12226405B2, “Compounds and compositions for inhibiting the activity of HIF2-alpha and their methods of use” (Novartis AG, priority 2020, dated 2025)
